Reference: patent US20240239861A1, “GLUCAGON-RECEPTOR SELECTIVE POLYPEPTIDES AND METHODS OF USE THEREOF” (i2O Therapeutics, Inc., priority 2016, published 2024)
Entries after “also recorded” stand apart in the source; their conditions may differ. Where a SMILES comes first, the peptide text is derived from it. [ ]: non-standard residue; d: D form. Aib = CC(C)(N)C(=O)O

Legend:
[1] = Solubility in water or saline at room temperature, visual inspection; format: physicochemical
Excerpt: Samples were visually inspected for clarity of the sample, any appearance of turbidity or haziness.

[2] = Body weight change in diet-induced obese rats over 27 days, Compound A1 with or without exenatide; format: in vivo, rat
human GCGR = human GCGR (Homo sapiens, UniProt P47871); assay: Peptide-receptor mediated cAMP accumulation (LANCE Ultra cAMP) in CHO-K1 cells transfected with human GCGR; format: cell-based
Chain of human GCGR (P47871 26-477): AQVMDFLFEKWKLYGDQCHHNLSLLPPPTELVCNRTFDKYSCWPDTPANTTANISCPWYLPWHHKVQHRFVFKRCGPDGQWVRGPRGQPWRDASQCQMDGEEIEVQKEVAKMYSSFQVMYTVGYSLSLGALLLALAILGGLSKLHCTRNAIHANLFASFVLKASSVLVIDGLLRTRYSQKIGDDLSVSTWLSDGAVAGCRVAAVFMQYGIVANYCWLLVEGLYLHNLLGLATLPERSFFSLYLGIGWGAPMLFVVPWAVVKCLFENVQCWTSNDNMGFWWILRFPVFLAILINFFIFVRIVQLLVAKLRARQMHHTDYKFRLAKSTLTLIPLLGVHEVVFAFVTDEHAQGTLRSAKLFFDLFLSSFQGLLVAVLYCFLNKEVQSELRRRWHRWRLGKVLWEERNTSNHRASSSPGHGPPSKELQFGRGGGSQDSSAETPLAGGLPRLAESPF

[3] = Clearance following intravenous infusion, acylated peptides (1-hour infusion, 0.033 mg/kg); details: rat, in vivo, Table 8, male rats, unit inferred
[4] = Stability in water or saline at 37° C. and room temperature, 30 days, LC/MS and HPLC purity; format: physicochemical
Excerpt: Samples were withdrawn at a regular interval for 30 days and analyzed by LC/MS and HPLC for determination of purity and mass of the degradation product.

hGIPR = target: T1, hGIPR (Homo sapiens, UniProt P48546); assay: Human in vitro potency (pEC50) at hGIPR; format: cell-based
T1 sequence (P48546 22-466): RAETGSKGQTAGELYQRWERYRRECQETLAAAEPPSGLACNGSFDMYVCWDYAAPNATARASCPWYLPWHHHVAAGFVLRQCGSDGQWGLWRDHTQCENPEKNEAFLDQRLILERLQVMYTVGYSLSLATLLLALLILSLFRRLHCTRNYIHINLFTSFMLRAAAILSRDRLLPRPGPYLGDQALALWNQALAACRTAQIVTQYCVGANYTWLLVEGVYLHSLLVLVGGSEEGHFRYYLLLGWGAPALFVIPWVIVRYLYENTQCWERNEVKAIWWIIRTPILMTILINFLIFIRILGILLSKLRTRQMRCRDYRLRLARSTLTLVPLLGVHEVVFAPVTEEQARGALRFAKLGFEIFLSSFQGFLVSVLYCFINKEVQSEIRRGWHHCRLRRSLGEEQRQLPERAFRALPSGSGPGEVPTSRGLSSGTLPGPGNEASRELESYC

human GLP-1R = human GLP-1R (Homo sapiens, UniProt P43220); assay: Peptide-receptor mediated cAMP accumulation (LANCE Ultra cAMP) in CHO-K1 cells transfected with human GLP-1R; format: cell-based
Chain of human GLP-1R (P43220 24-463): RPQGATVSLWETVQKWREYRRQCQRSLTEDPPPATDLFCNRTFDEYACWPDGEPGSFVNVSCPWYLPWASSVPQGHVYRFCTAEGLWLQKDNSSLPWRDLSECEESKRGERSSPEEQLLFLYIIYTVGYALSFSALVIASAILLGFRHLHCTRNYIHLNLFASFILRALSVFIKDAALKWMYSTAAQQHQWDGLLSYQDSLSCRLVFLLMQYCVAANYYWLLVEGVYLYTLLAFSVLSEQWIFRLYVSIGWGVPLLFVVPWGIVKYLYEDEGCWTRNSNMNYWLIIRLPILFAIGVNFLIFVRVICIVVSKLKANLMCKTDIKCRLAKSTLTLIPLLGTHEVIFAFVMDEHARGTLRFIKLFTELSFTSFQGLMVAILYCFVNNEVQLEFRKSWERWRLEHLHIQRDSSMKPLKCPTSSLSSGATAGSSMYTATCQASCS

[5] = 3-hour subcutaneous infusion pharmacokinetics; details: male, rat, in vivo
Description: Peptides were formulated in sterile saline and administered as a 3-hour subcutaneous infusion to non-fasted male Wistar Han or Sprague-Dawley rats (n=3 per group) at a final dose of 0.3 or 0.1 mg/kg via a cannula placed into the subcutaneous space between the scapulae. […] Plasma was prepared by centrifugation and stored at −80° C. until analysis.
Protein Precipitation: All 96-well plates were coated with a blocking agent to mitigate non-specific binding of peptides. Plasma samples (75 uL) were added to a 96-well plate containing 200 uL of 2:1 ethanol:acetonitrile containing 0.1% TFA and mixed well via aspiration. Plates were capped, vortex-mixed and centrifuged. Supernatants (215 uL) were transferred to a clean 96-well plate, evaporated to dryness under nitrogen flow and then reconstituted in 75 μL of 20% acetonitrile in water containing 0.10% formic acid.
Solid-Phase Extraction: Samples were diluted 3-fold with 5% NH4OH (aq) and loaded onto an Oasis MAX microElution plate (Waters Corp, Milford, MA) that had been pre-conditioned with 200 uL each of methanol and 5% NH4OH (aq). The plate was washed with 200 uL 5% NH4OH (aq), followed by 200 uL 20% acetonitrile in water. […]
All calibration standards were prepared in control rat plasma containing K2EDTA and protease inhibitor cocktail. […] Peptides were quantified my monitoring one or more product ions produced from a multiply charged parent ion.

[6] = Steady state plasma concentrations of glucagon analogs given subcutaneously by osmotic minipump; format: in vivo, rat
[7] = Body weight change in DIO Long Evans rats after 13 days continuous dosing by osmotic pump; details: for weight loss compared to vehicle control after 13 days: DIO LE rats, single agent; for ED50 of weight loss: DIO rats
Description: Rats were 15-17 weeks old at the start of the study. The rats were housed 1 per cage and given ad libitum access to high fat diet (Harlan TD.95217, 4.3 kcal/g) and water, maintained on a 12 hr light/dark cycle from 5:00 AM to 5:00 PM at 21° C. and 50% relative humidity and allowed to acclimate for at least 10 days prior to the surgeries. Baseline fat mass and non-fat mass measurements were taken 3 days before the start of peptide infusion using a QMR instrument (Echo Medical Systems, Houston, TX). Body weight measurements were taken 2 times/week starting three days before the surgery. Rats were randomized according to their percent body fat mass and/or body weight into the various treatment groups (n=4-6 rats/group). […] On the day of surgery, rats were anesthetized under isoflurane and the dorsal skin surface was shaved and cleansed. Rats were injected SC with Flunexin (2.5 mg/kg). A 1-2 cm surgical incision was made between the scapulae. Using blunt dissection, a 2-3 cm subcutaneous tunnel was created into which the sterile, filled, mini-osmotic pump was introduced. The skin opening was closed with a skin staple. Each rat was implanted with either one or two osmotic pumps containing vehicle or peptide according to their treatment group. All the data are presented as mean±SEM. The data were analyzed in Excel and/or Prism (GraphPad Software, Inc., La Jolla, CA) using one-way ANOVA to compare each group to the appropriate control group.

[8] = Clearance at intravenous infusion rate of 10 mcg/kg/hr; details: for clearance: rat, in vivo, 10 mcg/kg/hr
[9] = 3-hour intravenous infusion pharmacokinetics, peptide clearance (CL); details: male, rat, in vivo

For CC(C)C[C@H](NC(=O)[C@H](Cc1ccc(O)cc1)NC(=O)[C@H](CCCCN)NC(=O)[C@H](CO)NC(=O)[C@H](Cc1ccc(O)cc1)NC(=O)[C@H](CC(=O)O)NC(=O)[C@H](CO)NC(=O)[C@@H](NC(=O)[C@H](Cc1ccccc1)NC(=O)[C@@H](NC(=O)CNC(=O)[C@H](Cc1c[nH]cn1)NC(=O)[C@H](CO)NC(=O)[C@@H](N)Cc1ccc(O)cc1)[C@@H](C)O)[C@@H](C)O)C(=O)N[C@@H](CC(=O)O)C(=O)NC(C)(C)C(=O)N[C@@H](CCCCN)C(=O)N[C@@H](Cc1ccc(O)cc1)C(=O)N[C@@H](C)C(=O)N[C@@H](CCC(N)=O)C(=O)N[C@@H](CCC(=O)O)C(=O)N[C@@H](Cc1ccccc1)C(=O)N[C@H](C(=O)NC(C)(C)C(=O)N[C@@H](Cc1c[nH]c2ccccc12)C(=O)N[C@@H](CC(C)C)C(=O)N[C@@H](CCC(=O)O)C(=O)N[C@@H](CC(=O)O)C(=O)N[C@@H](CCC(=O)O)C(=O)N1CCC[C@H]1C(=O)N[C@@H](CO)C(=O)N[C@@H](CO)C(=O)NCC(=O)N[C@@H](C)C(=O)N1CCC[C@H]1C(=O)N1CCC[C@H]1C(=O)N1CCC[C@H]1C(=O)N[C@@H](CO)C(=O)O)C(C)C [Compound A1] (H-YSHGTFTSDYSKYLD[Aib]KYAQEFV[Aib]WLEDEPSSGAPPPS-OH; N-terminus assumed), the solubility ([1]; Table 3, room temperature, read-out: Solubility in water) was over 200 mg/mL, the “Physiochemical Properties Solubility” value ([1]; Table 6, unit not given) was over 200 and the “interaction of the combination with exenatide on weight loss” value ([2]; 27 days, Compound A1 24 and 50 mcg/kg/day with exenatide 10 mcg/kg/day) was “supra-additive (synergistic) effect”. The “maximal weight loss response, combination with exenatide” value ([2]; 27 days, Compound A1 with exenatide 10 mcg/kg/day) was about 47%, the “increase in body weight over 27 days” value ([2]; DIO rats, Compound A1 alone 7.5 mcg/kg/day) was about 4% and the “increase in body weight over 27 days” value ([2]; DIO rats, Compound A1 alone 24 mcg/kg/day) was about 4%. The “decrease in body weight over 27 days” value ([2]; DIO rats, Compound A1 alone, highest infusion rate (50 mcg/kg/day)) was 16.8%, the EC50 (human GCGR) was 0.0251 nM and the “activation profile at the human glucagon receptor (GCGR)” value (human GCGR; FIG. 1A) was “nearly equipotent on GCGR”. The clearance ([3]; read-out: CL (IV/SubQ)) was 0.69 L/h/kg, the half-life ([3]; read-out: T ½ (converted)) was 49.8 min and the “Stability 1 mg/ml in water at 37 degC” value ([4]; Table 3, % printed only in cells of A1-A6) was over 71%. The “Physiochemical Properties Stability” value ([4]; Table 6) was over 95%, the EC50 (hGIPR) was over 10 µM and the “activation profile at the human GLP-1 receptor (GLP-1R)” value (human GLP-1R; FIG. 1B) was “inactive on GLP-1R”. It also gave an EC50 (human GLP-1R; GLP-1R pEC50, Table 7, GLP-1R) of over 1 µM, an EC50 (human GLP-1R; Human in vitro Potency (pEC50) hGLP-1R, Table 6) of 6.31 µM and an EC50 (human GLP-1R; hGLP1 pEC50 (cAMP mean (n = 3): 11 point curve starting at 1 nM, Table 3)) of 6.31 µM. For the same molecule, the EC50 (human GLP-1R; hGLP1 pEC50 (cAMP) mean (n = 9): 11 point curve starting at 500 uM, Table 2A) was 6.31 µM, the bioavailability [5] was 74% and the mode of clearance ([6]; FIG. 6, steady state plasma concentration vs inulin/GFR) was “consistent with being via glomerular filtration; also recorded: cleared mainly by glomerular filtration”. The subcutaneous bioavailability ([6]; sc osmotic minipump, rat) was “high”, the “weight loss compared to vehicle control after 13 days” value ([7]; 0.01 mg/kg/day) was 5.6% and the “weight loss compared to vehicle control after 13 days” value ([7]; 0.03 mg/kg/day) was 3.5%. The “weight loss compared to vehicle control after 13 days” value ([7]; 0.1 mg/kg/day) was 10%, the “weight loss compared to vehicle control after 13 days” value ([7]; 0.3 mg/kg/day) was 22.6% and the “ED50 of weight loss” value ([7]; 13 days infusion, fits sharing vehicle response and common maximum (FIG. 9)) was 51 µg/kg/day. The “ED50 of weight loss” value ([7]; 13 days sc minipump, 4-parameter sigmoid fit of each agent (FIG. 8; Table 6 prints no unit)) was 65.7 µg/kg/day, the “% Weight loss Single” value ([7]; Table 6, rat in vivo) was 26% and the “in vivo potency compared with exenatide” value ([7]; administered alone) was “almost as potent in vivo as exenatide”. For the same molecule, the “maximal weight loss relative to exenatide” value ([7]; greater, administered alone) was 2.3 fold, the “common maximal weight loss response” value ([7]; over 13 days, fits constrained to share it (FIG. 9)) was 27.2% and the “clearance compared with exenatide and glucagon” value ([8]; FIG. 7) was “less than that of exenatide and glucagon”. For the same molecule, the mode of clearance ([8]; FIG. 7, Table 5 values close to GFR) was “cleared from plasma via glomerular filtration”, the clearance ([8]; Rat PK Cl, Table 6, unit inferred) was 0.69 L/h/kg and the clearance ([8]; iv, CL mL/min/kg, Table 5, intravenous infusion rate 10 mcg/kg/hr) was 0.636 L/h/kg. It also gave a clearance [9] of 0.69 L/h/kg.
